Measurements taken from PMC7048748, “Anxiolytic Drug FGIN-1-27 Ameliorates Autoimmunity by Metabolic Reprogramming of Pathogenic Th17 Cells” (Scientific Reports, 2020).

Key:
Format in all cases: cell-based, mouse
[1] = tested on: Th17 cells; test: Th17 differentiation assay, intracellular IL-17 by flow cytometry
Description: Because of differential TSPO expression in Th17 cells (Fig. S1a) and up-regulation of TSPO in neuroinflammation, we tested whether TSPO ligands, such as FGIN-1-27, can affect Th17 differentiation. In this assay, purified CD4^+ T cells from mouse spleens and lymph nodes were cultured under Th17 polarizing conditions. […] FGIN-1-27 treatment had no effect on protein or transcript levels of RORγt, the Th17 lineage-determining transcription factor.
Figure 1 FGIN-1-27 Inhibits Th17 Differentiation. Naïve CD4 T cells from spleens and lymph nodes of C57BL/6 mice were differentiated under Th17 polarization conditions and were treated with DMSO (control) or FGIN-1-27. (a) Dose response plot showing effect of FGIN-1-27 on intracellular IL-17 and viability on day 4 post activation quantified by flow cytometry. Data is normalized against DMSO (100%). […] (b) Dot plots showing DMSO or FGIN-1-27 treated cells stained for surface CD4, CD44, intracellular IL-17 and intranuclear RORγt. (c) Transcript levels for the indicated genes after 24 hours of treatment with DMSO or FGIN-1-27 quantified by qPCR. Data was normalized to a housekeeping gene, β-actin. Data are representative of at least 3 independent experiments and the error bars indicate standard deviation.
Single cell suspensions were prepared from spleens and lymph nodes of mice by mechanical disruption. Red blood cells were lysed by ammonium chloride followed by CD4^+ T cell purification using either CD4 microbeads (Miltenyi Biotec) or sorting for naïve CD4^+ T cells (FACS Aria). 250,000 cells/well in a 48 well plate were polarized into Th17 cells using Th17 differentiation cocktail: IFNγ, IL-4, IL-12 neutralizing antibodies (10 μg/ml) and 10 ng/ml each of IL-6, IL-1b, IL-21 and TGF-β (0.5 ng/ml). Cells were treated with FGIN-1-27 (Tocris Bioscience) or DMSO at 18 hour and 48 hours post cell plating. On day 4 of culture, cells were re-stimulated with PMA-ionomycin in the presence of brefeldin A. Cells were subsequently stained with viability dye and surface stained for CD44, CD4 followed by permeabilization using cytofix/cytoperm (BD biosciences) and stained for intracellular IL-17. RORγt intranuclear staining was performed after fixation and permeabilization with a Foxp3/Transcription Factor Staining kit (eBioscience). Cells were acquired on BD Fortessa followed by analysis using Flowjo (Tree star Inc).

[2] = tested on: STAT3; test: Phospho Stat3 staining after IL-6 re-stimulation; settings: re-stimulation with IL-6
Description: The following day, cells were treated with either DMSO or of FGIN-1-27 (10 μM). For phospho-ZAP70 analyses, cells were stained after 24 hours of treatment using 10 μg/ml of biotinylated anti-CD3 (145-2C11, BD Biosciences) and anti-CD28 (37.51, BD Biosciences) antibodies on ice for 15 minutes, washed, and stimulated in presence of 20 μg/ml of Streptavidin for 10 minutes at 37 degrees. Cells were then fixed in 2% PFA, permeabilized in Methanol/Acetone and stained with anti-phospho ZAP70 antibody (n3kobu5, eBioscience) and anti-CD4 (RM4-5, eBioscience). For phospho-STAT3 analyses, cells were cultured for additional 24 hours in IL-6 free media, before stimulation with 100 ng/ml of mIL-6 for 30 minutes. Cells were then fixed in 2% PFA, permeabilized in Methanol/Acetone and stained with anti-phospho-STAT3 antibody (4/P-STAT3, BD Biosciences) and anti-CD4. Dead cells were excluded using Live/Dead […] (Thermo Fisher) staining prior to stimulation. page 3: Supplementary Figur es Fig S1 (a) Genomic browser screenshot of Tspo depicting normalized RNA-seq read coverage (RPM) in different T cell subsets. Data were downloaded from NCBI GEO (accession number GSE40918) and processed as in Figure 4A. […] (g) Transcript levels for S ta t3 after 24 hours of treatment with DMSO or FGIN-1-27 quantified by qPCR. […]

[3] = tested on: polarized Th17 cells; test: IL-17 production in fully differentiated Th17 cells after re-stimulation; settings: on re-stimulation
Description: We also tested whether FGIN-1-27 regulated IL-17 production in fully differentiated Th17 cells. […] Thus, FGIN-1-27 inhibits Th17 cell differentiation in vitro without compromising T cell activation or survival.
(h) Dose response plot showing effect of FGIN-1-27 on intracellular IL-17 and viability in pre- differentiated Th17 cells after re- stimulation. Data is normalized against […]
(i) Mean clinical scores of mice following active induction of EAE. Mice were injected i/p twice daily with vehicle or FGIN-1-27 for 7 days. Data are pooled from 5 mice/group. The error bars represent SEM.
(j) Binding of FGIN-1-27 to TSPO in a radioligand displacement assay. Inhibition of binding of control (radiolabeled PK-11195) was used to determine binding of FGIN- […]
(1 picture or pasted object on this page, not shown here)

CCCCCCN(CCCCCC)C(=O)Cc1c(-c2ccc(F)cc2)[nH]c2ccccc12 [FGIN-1-27, N, N-di-n-hexyl 2-(4-fluorophenyl) indole-3-acetamide]
protein or transcript levels of RORγt [1]: no effect
proliferation (CFSE dilution) ([1]; 72 hours post treatment): proliferated to the same extent as DMSO treated cells
IC50 ([1]; Mus musculus, 96 h, day 4 post activation, normalized against DMSO (100%)): 4.85 µM
viability ([1]; Th17 polarizing conditions): without compromising viability
IL-17 producing cells abolished ([1]; compared to DMSO treated cultures): 85%
CD4 / CD44 dot plot, percent of cells ([1]; treated cells, Fig. 1b): 98%
IL-17 / RORγt dot plot, percent of cells ([1]; treated cells, Fig. 1b): 8.0%
phosphorylation of STAT3 [2]: did not show a defect
IL-17 producing cells in fully differentiated Th17 cells [3]: fewer IL-17 producing cells were detected
